Holding throughout (assay): relative viability (nuclei count vs DMSO), 5 days (fraction); higher = more cells survive
Compound in the assay “Etoposide + Alpelisib”: COc1cc([C@@H]2c3cc4c(cc3[C@@H](O[C@@H]3O[C@@H]5CO[C@@H](C)O[C@H]5[C@H](O)[C@H]3O)[C@H]3COC(=O)[C@H]23)OCO4)cc(OC)c1O [Etoposide] + Cc1nc(NC(=O)N2CCC[C@H]2C(N)=O)sc1-c1ccnc(C(C)(C)C(F)(F)F)c1 [Alpelisib] (partner 2 µM)
The procedure, abridged:
(§1)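 Lung cancer cell lines were pin-tool dosed in 1536-well plates on the day after seeding, with either a lone drug or a fixed anchor-drug dose plus five library-drug doses (not always all listed) in √10 steps. Nuclei were counted on 4× images after 5 days. Relative viability is the ratio of treated-well to vehicle-well nuclei counts, with each value a median of duplicate plates.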

Compound in the assay “Etoposide + Tozasertib”: COc1cc([C@@H]2c3cc4c(cc3[C@@H](O[C@@H]3O[C@@H]5CO[C@@H](C)O[C@H]5[C@H](O)[C@H]3O)[C@H]3COC(=O)[C@H]23)OCO4)cc(OC)c1O [Etoposide] + Cc1cc(Nc2cc(N3CCN(C)CC3)nc(Sc3ccc(NC(=O)C4CC4)cc3)n2)n[nH]1 [Tozasertib] (partner 0.1 µM)
In outline: as §1

Compound in the assay “Etoposide + Phenformin”: COc1cc([C@@H]2c3cc4c(cc3[C@@H](O[C@@H]3O[C@@H]5CO[C@@H](C)O[C@H]5[C@H](O)[C@H]3O)[C@H]3COC(=O)[C@H]23)OCO4)cc(OC)c1O [Etoposide] + N=C(N)NC(=N)NCCc1ccccc1 [Phenformin] (partner 250 µM)
In outline:
as §1

Compound in the assay “Etoposide + Palbociclib”: COc1cc([C@@H]2c3cc4c(cc3[C@@H](O[C@@H]3O[C@@H]5CO[C@@H](C)O[C@H]5[C@H](O)[C@H]3O)[C@H]3COC(=O)[C@H]23)OCO4)cc(OC)c1O [Etoposide] + CC(=O)c1c(C)c2cnc(Nc3ccc(N4CCNCC4)cn3)nc2n(C2CCCC2)c1=O [Palbociclib] (partner 0.5 µM)
The procedure, abridged: as §1

Turning to LOU-NH91, the relative viability with Etoposide + Alpelisib (first compound 0.01 µM) came to 0.7; with Etoposide + Alpelisib (first compound 0.03162 µM), 0.744; with Etoposide + Alpelisib (first compound 0.1 µM) it was 0.593; with Etoposide + Alpelisib (first compound 0.3162 µM), 0.62; in the assay with Etoposide + Alpelisib (first compound 1 µM) it was 0.469; with Etoposide + Tozasertib (first compound 0.01 µM), 0.713. In addition, the relative viability with Etoposide + Tozasertib (first compound 0.03162 µM) came to 0.673; with Etoposide + Tozasertib (first compound 0.1 µM) it was 0.566; in the assay with Etoposide + Tozasertib (first compound 0.3162 µM), 0.554; with Etoposide + Tozasertib (first compound 1 µM), 0.341; with Etoposide + Phenformin (first compound 0.01 µM) it was 0.692; with Etoposide + Phenformin (first compound 0.03162 µM), 0.756. Moreover, the relative viability worked out at 0.692 with Etoposide + Phenformin (first compound 0.1 µM); 0.653 in the assay with Etoposide + Phenformin (first compound 0.3162 µM); 0.404 with Etoposide + Phenformin (first compound 1 µM); 0.556 in the assay with Etoposide + Palbociclib (first compound 0.01 µM); 0.545 with Etoposide + Palbociclib (first compound 0.03162 µM); 0.516 with Etoposide + Palbociclib (first compound 0.1 µM). In addition, the relative viability with Etoposide + Palbociclib (first compound 0.3162 µM) stood at 0.468; with Etoposide + Palbociclib (first compound 1 µM), 0.428.

Consider NCI-H2085, for which the relative viability with Etoposide + Alpelisib (first compound 0.01 µM) is 0.882; with Etoposide + Alpelisib (first compound 0.03162 µM), 0.939; in the assay with Etoposide + Alpelisib (first compound 0.1 µM), 0.824; with Etoposide + Alpelisib (first compound 0.3162 µM), 0.552; with Etoposide + Alpelisib (first compound 1 µM) it was 0.35; with Etoposide + Tozasertib (first compound 0.01 µM), 0.783. The relative viability was determined as 0.772 in the assay with Etoposide + Tozasertib (first compound 0.03162 µM); 0.762 in the assay with Etoposide + Tozasertib (first compound 0.1 µM); 0.727 with Etoposide + Tozasertib (first compound 0.3162 µM); 0.478 in the assay with Etoposide + Tozasertib (first compound 1 µM); 0.748 in the assay with Etoposide + Phenformin (first compound 0.01 µM); 0.78 in the assay with Etoposide + Phenformin (first compound 0.03162 µM). The relative viability with Etoposide + Phenformin (first compound 0.1 µM) is 0.532; with Etoposide + Phenformin (first compound 0.3162 µM), 0.547; with Etoposide + Phenformin (first compound 1 µM), 0.322; in the assay with Etoposide + Palbociclib (first compound 0.01 µM), 0.461; with Etoposide + Palbociclib (first compound 0.03162 µM), 0.477; with Etoposide + Palbociclib (first compound 0.1 µM) it was 0.513. The relative viability was 0.409 with Etoposide + Palbociclib (first compound 0.3162 µM) and 0.323 in the assay with Etoposide + Palbociclib (first compound 1 µM).

As to COR-L23, the relative viability with Etoposide + Alpelisib (first compound 0.01 µM) was determined as 0.543; in the assay with Etoposide + Alpelisib (first compound 0.03162 µM) it was 0.891; in the assay with Etoposide + Alpelisib (first compound 0.1 µM) it was 0.771; with Etoposide + Alpelisib (first compound 0.3162 µM), 0.461; in the assay with Etoposide + Alpelisib (first compound 1 µM), 0.219; in the assay with Etoposide + Tozasertib (first compound 0.01 µM) it was 0.189. The relative viability with Etoposide + Tozasertib (first compound 0.03162 µM) stood at 0.236; with Etoposide + Tozasertib (first compound 0.1 µM), 0.262; in the assay with Etoposide + Tozasertib (first compound 0.3162 µM), 0.145; in the assay with Etoposide + Tozasertib (first compound 1 µM), 0.109; in the assay with Etoposide + Phenformin (first compound 0.01 µM) it was 0.394; with Etoposide + Phenformin (first compound 0.03162 µM) it was 0.479. The relative viability amounted to 0.434 in the assay with Etoposide + Phenformin (first compound 0.1 µM); 0.287 in the assay with Etoposide + Phenformin (first compound 0.3162 µM); 0.155 in the assay with Etoposide + Phenformin (first compound 1 µM); 0.23 in the assay with Etoposide + Palbociclib (first compound 0.01 µM); 0.27 with Etoposide + Palbociclib (first compound 0.03162 µM); 0.27 in the assay with Etoposide + Palbociclib (first compound 0.1 µM). In addition, the relative viability with Etoposide + Palbociclib (first compound 0.3162 µM) worked out at 0.261; with Etoposide + Palbociclib (first compound 1 µM) it was 0.146.

As to BEN, the relative viability was determined as 0.841 in the assay with Etoposide + Alpelisib (first compound 0.01 µM); 1.08 with Etoposide + Alpelisib (first compound 0.03162 µM); 0.87 with Etoposide + Alpelisib (first compound 0.3162 µM); 0.852 with Etoposide + Alpelisib (first compound 1 µM); 0.463 with Etoposide + Tozasertib (first compound 0.01 µM); 0.503 in the assay with Etoposide + Tozasertib (first compound 0.03162 µM). The relative viability with Etoposide + Tozasertib (first compound 0.3162 µM) is 0.483; with Etoposide + Tozasertib (first compound 1 µM) it was 0.481; in the assay with Etoposide + Phenformin (first compound 0.01 µM) it was 0.249; with Etoposide + Phenformin (first compound 0.03162 µM), 0.266; in the assay with Etoposide + Phenformin (first compound 0.3162 µM) it was 0.264; with Etoposide + Phenformin (first compound 1 µM), 0.289. In addition, the relative viability was found to be 0.491 in the assay with Etoposide + Palbociclib (first compound 0.01 µM), 0.487 in the assay with Etoposide + Palbociclib (first compound 0.03162 µM), 0.454 in the assay with Etoposide + Palbociclib (first compound 0.3162 µM) and 0.539 with Etoposide + Palbociclib (first compound 1 µM).

Regarding LK-2, the relative viability with Etoposide + Alpelisib (first compound 0.01 µM) was found to be 1.01; with Etoposide + Alpelisib (first compound 0.03162 µM), 1.12; with Etoposide + Alpelisib (first compound 0.1 µM), 0.71; with Etoposide + Alpelisib (first compound 0.3162 µM), 0.764; with Etoposide + Alpelisib (first compound 1 µM), 0.288; with Etoposide + Tozasertib (first compound 0.01 µM), 0.207. For the same cell line, the relative viability is 0.175 in the assay with Etoposide + Tozasertib (first compound 0.03162 µM); 0.18 with Etoposide + Tozasertib (first compound 0.1 µM); 0.21 in the assay with Etoposide + Tozasertib (first compound 0.3162 µM); 0.205 with Etoposide + Tozasertib (first compound 1 µM); 0.563 with Etoposide + Phenformin (first compound 0.01 µM); 0.641 with Etoposide + Phenformin (first compound 0.03162 µM). For the same cell line, the relative viability in the assay with Etoposide + Phenformin (first compound 0.1 µM) was 0.368; in the assay with Etoposide + Phenformin (first compound 0.3162 µM), 0.319; with Etoposide + Phenformin (first compound 1 µM), 0.172; with Etoposide + Palbociclib (first compound 0.01 µM), 0.618; with Etoposide + Palbociclib (first compound 0.03162 µM), 0.588; with Etoposide + Palbociclib (first compound 0.1 µM), 0.451. Moreover, the relative viability is 0.412 in the assay with Etoposide + Palbociclib (first compound 0.3162 µM) and 0.275 with Etoposide + Palbociclib (first compound 1 µM).

Consider NCI-H441, for which the relative viability was determined as 0.473 in the assay with Etoposide + Alpelisib (first compound 0.01 µM); 0.722 with Etoposide + Alpelisib (first compound 0.03162 µM); 0.362 with Etoposide + Alpelisib (first compound 0.1 µM); 0.16 in the assay with Etoposide + Alpelisib (first compound 0.3162 µM); 0.174 with Etoposide + Alpelisib (first compound 1 µM); 0.511 with Etoposide + Tozasertib (first compound 0.01 µM). For the same cell line, the relative viability was 0.541 with Etoposide + Tozasertib (first compound 0.03162 µM); 0.418 with Etoposide + Tozasertib (first compound 0.1 µM); 0.289 in the assay with Etoposide + Tozasertib (first compound 0.3162 µM); 0.264 with Etoposide + Tozasertib (first compound 1 µM); 0.835 in the assay with Etoposide + Phenformin (first compound 0.01 µM); 0.976 in the assay with Etoposide + Phenformin (first compound 0.03162 µM). For the same cell line, the relative viability came to 0.587 with Etoposide + Phenformin (first compound 0.1 µM); 0.275 with Etoposide + Phenformin (first compound 0.3162 µM); 0.198 in the assay with Etoposide + Phenformin (first compound 1 µM); 0.194 in the assay with Etoposide + Palbociclib (first compound 0.01 µM); 0.251 with Etoposide + Palbociclib (first compound 0.03162 µM); 0.177 with Etoposide + Palbociclib (first compound 0.1 µM). The figures for the relative viability with Etoposide + Palbociclib (first compound 0.3162 µM) and with Etoposide + Palbociclib (first compound 1 µM) were 0.191 and 0.128, respectively.
